Assay results from paper PMC7522982, “PKIS deep dive yields a chemical starting point for dark kinases and a cell active BRSK2 inhibitor” (Scientific Reports, 2020).
Values joined by “and” are separate entries in the source; they are usually repeats but may differ in a detail not shown here. Identical values can stand only once. Like-named read-outs stand apart in the source and are kept apart here.

Legend:
[1] = biological target: T1, NLuc-BRSK2 in HEK293 cells (Homo sapiens, UniProt Q8IWQ3); assay: BRSK2 NanoBRET cellular target engagement assay; assay type: cell-based; conditions: HEK293 cells transiently expressing NLuc-BRSK2, Tracer K5 1 μM, N = 3
T1 construct: host or cells: HEK293
T1 sequence (Q8IWQ3 1-736): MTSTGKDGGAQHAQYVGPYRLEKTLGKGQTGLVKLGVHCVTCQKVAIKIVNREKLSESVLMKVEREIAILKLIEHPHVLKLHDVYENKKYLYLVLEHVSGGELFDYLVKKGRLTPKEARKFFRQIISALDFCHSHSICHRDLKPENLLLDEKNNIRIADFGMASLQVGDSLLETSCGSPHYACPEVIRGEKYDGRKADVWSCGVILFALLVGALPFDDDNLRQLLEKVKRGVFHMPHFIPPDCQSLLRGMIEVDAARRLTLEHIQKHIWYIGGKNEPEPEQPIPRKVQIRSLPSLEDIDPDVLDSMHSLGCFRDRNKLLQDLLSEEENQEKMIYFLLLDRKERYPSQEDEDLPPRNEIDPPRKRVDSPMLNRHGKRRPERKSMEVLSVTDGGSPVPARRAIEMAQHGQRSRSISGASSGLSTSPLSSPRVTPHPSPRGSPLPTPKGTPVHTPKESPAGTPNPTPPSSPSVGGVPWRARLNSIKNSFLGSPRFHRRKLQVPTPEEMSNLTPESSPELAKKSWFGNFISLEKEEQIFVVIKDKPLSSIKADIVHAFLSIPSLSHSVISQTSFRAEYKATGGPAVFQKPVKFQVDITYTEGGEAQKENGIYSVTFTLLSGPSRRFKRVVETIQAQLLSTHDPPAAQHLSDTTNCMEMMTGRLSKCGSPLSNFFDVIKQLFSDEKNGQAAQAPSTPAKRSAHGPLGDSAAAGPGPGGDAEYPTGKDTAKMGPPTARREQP
Description: Our interest in illuminating BRSK2 biology motivated further investigation of the cellular target engagement of BRSK2 by GW296115 using our NanoBRET assay. BRSK2 kinase was fused to 19-kDa luciferase (NLuc) at its N-terminus (NLuc–BRSK2) which was transiently expressed in HEK293 cells, and then incubated with a cell-permeable fluorescent energy transfer probe (tracer)[23].
NanoBRET assays were executed as described previously. Constructs for BRSK2 NanoBRET measurements were provided in kind by Promega. The N-terminal Nanoluciferase (NL)/BRSK2 fusion (NL-BRSK2) was encoded in pFN32K expression vector, including flexible Gly-Ser-Ser-Gly linkers between NL and BRSK2 (Promega). For cellular BRSK2 NanoBRET target engagement experiments, a 10 μg/mL solution of DNA in Opti-MEM without serum (Gibco) was prepared with 9 μg/mL of Carrier DNA (Promega) and 1 μg/mL of NL-BRSK2 to achieve a total volume of 1.05 mL. To this solution was then added 31.5 μL of FuGENE HD (Promega) to form a lipid:DNA complex, mixed by inversion 8 times, and incubated at room temperature for 20 min. The resulting transfection complex (1.082 mL) was next gently mixed with HEK293 cells (21 mL) suspended at a density of 2 × 10^5 cells/mL in DMEM containing 10% FBS.
After 24 h, media was removed via aspiration and 85 μL of room temperature Opti-MEM without phenol red (Gibco) was added to each well. […] Next, 5 μL (20 × working stock of NanoBRET Tracer K5 [20 μM] in Tracer Dilution Buffer (Promega N291B)) was added to each well with the exception of the “no tracer” control wells. Test compounds were prepared as concentrated stock solutions in 100% DMSO (Sigma) at a concentration of 10 mM. […] A volume of 10 μL of tenfold test compound stock solutions (final assay concentration of […]) was added to each well. For “no compound” and “no tracer” control wells, 10 μL of Opti-MEM plus DMSO (9 μL Opti-MEM plus 1 μL DMSO) was added to each well to achieve a final concentration of 1% DMSO.
After 2 h, plates were returned to room temperature over the course of 15 min. […] Next, 50 μL of the 3 × substrate/extracellular NL inhibitor stock was added to each well.
Test compounds were evaluated at 8 concentrations in competition with NanoBRET Tracer K5 in HEK293 cells transiently expressing the NL-BRSK2 fusion protein. Raw milliBRET (mBRET) values were obtained by dividing the acceptor emission values (600 nm) by the donor emission values (450 nm), and then multiplying by 1000. Averaged control values were used to represent complete inhibition (no tracer control: transfected cells in Opti-MEM + DMSO; tracer control: transfected cells in Opti-MEM + DMSO + Tracer K5 only), and were plotted alongside the raw mBRET values. The data with n = 3 biological replicates was first normalized and then fit using Sigmoidal, 4PL binding curve in Prism Software (version 8, GraphPad, La Jolla, CA, USA).

BRSK2 = biological target: T2, BRSK2 (Homo sapiens, UniProt Q8IWQ3); design: purchased Eurofins; conditions: 0.5 μM; cited from earlier work
T2 sequence (Q8IWQ3 1-736): T1 sequence (Q8IWQ3 1-736)

[2] = read-out: BRSK2 NanoBRET data IC50

Structure (SMILES) | IC50 [1, 2] [nM] | other results
O=C1NC(=O)c2c1c1c3ccccc3[nH]c1c1[nH]c3ccccc3c21 [Arcyriaflavin A] | 7680 ± 3500 | –
O=C1NC(=O)C(c2c[nH]c3ccccc23)=C1c1c[nH]c2ccccc12 [Bisindolylmaleimide IV, bisindolylmaleimide IV] | – | biochemical inhibition of BRSK2 (BRSK2): weak biochemical inhibition
O=C1NC(=O)c2c1c1c3ccccc3[nH]c1c1[nH]c3cc(Br)ccc3c21 [CDK4 inhibitor] | 1330 ± 230 | –
Cn1c2ccccc2c2c3c(c4c5ccccc5n(CCC#N)c4c21)CNC3=O [Gö 6976] | 914 ± 640 | –
COC(=O)C1(O)CC2OC1(C)n1c3ccccc3c3c4c(c5c6ccccc6n2c5c31)C(=O)NC4 (stereo not shown) [K-252a] | – | IC50 ([1]; BRSK2 NanoBRET data IC50 (nM)): 20.2 nM and < 100 nM
O=C1NCc2c1c1c3ccccc3[nH]c1c1[nH]c3ccccc3c21 [K-252c] | – | IC50 ([1]; BRSK2 NanoBRET data IC50 (nM)): 308 ± 250 nM
O=C1NC(=O)c2c1c1c3ccccc3n3c1c1c2c2ccccc2n1C1CCC3O1 [SB 218078] | 883 ± 200 | –
